# Where “and” joins values, the source holds several entries; their conditions need not be identical. Equal values may be shown once. Read-outs that look alike come from different tables or passages of the source.
# Tests used:
# in vitro [1] = conditions: mouse, microsomes, pH 7.4
# [2] = for Stability time course, Mean (FS10f): relative to 100 at 0 min
# CB1R = assay: Bimane fluorescence of labeled CB1R; type: biochemical, human; conditions: 10 μM ligand; apo 459 nm
# Experimental: A minimal cysteine version of CB1R was generated[85] where all the cysteine residues (except C256 and C264) were mutated to alanine. […] Excess label was removed using size exclusion chromatography on a Superdex 200 10/300 Increase column in 20 mM HEPES pH 7.5, 100 mM NaCl and 0.01% MNG/0.001% CHS. Bimane-labeled CB1R at […] was incubated with ligands (10 μM) for one hour at room temperature. Fluorescence data was collected at room temperature in a 150 μL cuvette with a FluorEssence v3.8 software on a Fluorolog instrument (Horiba) in photon-counting mode. Bimane fluorescence was measured by excitation at 370 nm with excitation and emission bandwidth passes of 4 nm. The emission spectra were recorded from 410 to 510 nm with 1 nm increment and 0.1 s integration time.
# [3] = biological target: T1, CB1R with G protein (Gi1-3, Go) (Homo sapiens, UniProt P21554); assay: GTP turnover assay (GTPase-Glo); type: biochemical; conditions: replicates, sheet FigS3c
# T1 construct: a N-terminal FLAG tag and C-terminal histidine tag was added to human full-length CB1; FLAG (N); histidine tag (C); made in house; host or cells: CB1R: Spodoptera frugiperda Sf9; G proteins: Trichoplusia ni Hi5
# T1 sequence (P21554 whole entry): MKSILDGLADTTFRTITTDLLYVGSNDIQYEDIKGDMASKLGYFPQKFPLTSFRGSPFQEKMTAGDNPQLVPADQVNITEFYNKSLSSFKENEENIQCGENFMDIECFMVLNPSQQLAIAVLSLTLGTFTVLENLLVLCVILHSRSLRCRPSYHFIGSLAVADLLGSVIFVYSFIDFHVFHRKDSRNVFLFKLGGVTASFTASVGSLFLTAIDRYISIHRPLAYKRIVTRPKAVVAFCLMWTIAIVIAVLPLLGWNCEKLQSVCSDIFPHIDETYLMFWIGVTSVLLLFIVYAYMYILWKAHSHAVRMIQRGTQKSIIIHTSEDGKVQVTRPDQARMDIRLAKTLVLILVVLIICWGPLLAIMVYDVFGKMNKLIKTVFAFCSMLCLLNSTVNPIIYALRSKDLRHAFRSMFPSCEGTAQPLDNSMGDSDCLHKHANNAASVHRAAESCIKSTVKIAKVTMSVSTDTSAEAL
# Experimental: Analysis of GTP turnover was performed by using a modified protocol of the GTPase-Glo^TM assay (Promega) described previously. Ligand-bound (10 μM ligand incubated for one hour at room temperature) or apo CB1R (1 μM) was mixed with G protein (1 μM) in 20 mM HEPES, pH 7.5, 50 mM NaCl, 0.01% L-MNG/0.001% CHS, 100 μM TCEP, 10 μM GDP and 10 μM GTP and incubated at room temperature. GTPase-Glo-reagent was added to the sample after incubation for 60 min (Gi1-3) and 20 min for (Go). Luminescence was measured after the addition of detection reagent and incubation for 10 min at room temperature using a SpectraMax Paradigm plate reader.
# P-gp (human MDR1) = assay: in vitro; conditions: dog, MDCK-MDR1, pH 7.4
# [4] = pH 7.4, kinetic, 2% DMSO, 25 °C
# [5] = mouse plasma, 1.0 µM
# in vitro [6] = conditions: mouse, pH 7.4
smiles,measurement,setting,value
CC(C)NCC(O)COc1cccc2ccccc12 (stereo not shown) [Propranolol],"remaining at 40 min, 2 µM",in vitro [1],106%
same,"Stability time course, Mean (FS10f)",[2]; Time 0 min,100
same,"Stability time course, Mean (FS10f)",[2]; Time 7 min,46.9307
same,"Stability time course, Mean (FS10f)",[2]; Time 15 min,32.0792
same,"Stability time course, Mean (FS10f)",[2]; Time 25 min,24.5545
same,"Stability time course, Mean (FS10f)",[2]; Time 40 min,16.6997
same,Mean % Remaining,"[2]; mouse microsomes, 15 min",32%
"COC(=O)[C@@H](NC(=O)c1nn(Cc2ccc(F)cc2)c2ccccc12)C(C)(C)C [MDMB-Fub, MDMB-Fubinaca, reference compound]",bimane spectrum λmax,CB1R,465 nm
same,"GTP turnover, normalised (FUB about 100)",[3]; Gi2,98.933 and 99.3172 and 100.642 and 101.735 and 100.511 and 98.862
same,"GTP turnover, normalised (FUB about 100)",[3]; Gi3,98.4729 and 99.2586 and 100.386 and 101.71 and 99.9413 and 100.231
same,"GTP turnover, normalised (FUB about 100)",[3]; Goa,94.5882 and 101.149 and 98.4211 and 105.861 and 100.202 and 99.77
same,"GTP turnover, normalised (FUB about 100)","[3]; first block, G protein not printed (Gi2, Gi3, Goa follow)",100.725 and 100.983 and 100.099 and 103.208 and 97.7953 and 97.1894
C[C@H]1O[C@@H](O[C@H]2[C@@H](O)C[C@H](O[C@H]3[C@@H](O)C[C@H](O[C@H]4CC[C@@]5(C)[C@H](CC[C@@H]6[C@@H]5C[C@@H](O)[C@]5(C)[C@@H](C7=CC(=O)OC7)CC[C@]65O)C4)O[C@@H]3C)O[C@@H]2C)C[C@H](O)[C@@H]1O [Digoxin],"efflux ratio at 90 min, 10 μM",P-gp (human MDR1),7.3
Cc1nccn1CC1CCc2c(c3ccccc3n2C)C1=O (stereo not shown) [Ondansetron],"PBS solubility, Mean",[4],120 µM
"COc1ccc(CCN(C)CCCC(C#N)(c2ccc(OC)c(OC)c2)C(C)C)cc1OC (stereo not shown) [Verapamil, reference compound]",Mean % of bound compound,[5],88%
same,"recovery at 5 h, 1 μM",in vitro [6],91%
